Experimental data as given in US20210260018A1, “COMPOSITION FOR TREATING FIBROTIC DISEASES, […] THI[…] AS ACTIVE INGREDIENT” (Cellion Biomed Inc., priority 2018, published 2021).

How the values were obtained:
KCa2.3 channel [1] = experiment: KCa2.3 current in hepatic stellate cells (whole-cell patch-clamp); format: cell-based, human; conditions: membrane potential of 1-50 mV, exposure for 24 hours
Description: (§1) Fibroblasts (CRL-2795; American Type Culture Collection, VA) were cultured in a Dulbecco's Modified Eagle Medium (Hyclone, Logan, Utah), human uterine microvascular endothelial cells (PromoCell GmbH, Heidelberg, Germany) were cultured in an MV2 medium (PromoCell GmbH), and human hepatic stellate cells (Innoprot, Bizkia, Spain) were cultured in a P60126 medium (Innoprot).
(§2) All cells were maintained under a 5% humidified carbon dioxide condition at 37° C. The cultured cells were exposed to each of PDGF, TGFβ, and the compounds of Formulas A1 to A9 (CBM-N1 N9) for 24 hours, followed by performing experiments.
A whole cell current through a cell membrane in the isolated and cultured single cells was measured using a patch-clamp technique. […]
A standard external solution contained 150 mM NaCl, 6 mM KCl, 1.5 mM CaCl2), 1 mM MgCl2, 10 mM HEPES and 10 mM glucose at pH 7.4 (titrated NaOH), and a micro glass electrode (pipette) solution contained 40 mM KCl, 100 mM K-aspartate, 2 mM MgCl2, 0.1 mM EGTA, 4 mM Na2ATP and 10 mM HEPES at pH 7.2 (titrated with KOH). A free Ca^2+ concentration in the pipette solution was adjusted to 1 μM by adding an appropriate amount of Ca^2+ in the presence of 5 mM EGTA (calculated with CaBuf; Droogmans, Leuven, Belgium), […]

fibroblasts = experiment: MTT cell proliferation in fibroblasts exposed to TGFβ or PDGF; format: cell-based
Description: as §1, §2
Cells were seeded in 96-well plates at 2×10^4 cells/well, and then exposed to TGFB, which promotes cell proliferation, for 24 hours. In addition, 0.1 mg of MTT was added to each well, followed by exposure for 4 hours at 37° C. Afterward, the culture medium was removed, the cells were lysed with dimethyl sulfoxide, and then absorbance was measured at 590 nm using the following devices.

[2] = tested on: bleomycin-induced pulmonary fibrosis mouse models; experiment: Bleomycin-induced pulmonary inflammation and fibrosis mouse model; format: in vivo; conditions: lung tissue, bleomycin mice
Description: To confirm the effect of the compound of Formula A9 (CBM-N9) on pulmonary inflammation and fibrosis caused by bleomycin, the following experiments were performed on C57BL/6 wild-type mice. First, the mice were divided into a normal control, a disease-induced group, and a drug-administered group, and ten mice were included in each of the three groups. A drug treatment method for the mice in each group is as follows:
(1) Normal control: The same amount of distilled water as used when the bleomycin was applied in the disease-induced group was instilled intratracheally. In addition, a CBM-N9 solvent was intraperitoneally injected at the same amount used when CBM-N9 was administered to the disease-induced group to be described below five times a week.
(2) Disease-induced group: 1.5 units of bleomycin was instilled intratracheally. In addition, a CBM-N9 solvent was intraperitoneally injected at the same amount used in CBM-N9 administration five times a week.
(3) Drug-administered group: 1.5 units of bleomycin was intratracheally instilled. In addition, CBM-N9 (50 mg/kg) was injected intraperitoneally five times a week.
The mice treated with the drug for 4 weeks in the same manner as described above were instantly killed by excessively administering an anesthetic, and then the lungs were extracted.
To histologically confirm the therapeutic effect of the compound of Formula A1 (CBM-N1) or the compound of Formula A9 (CBM-N9) in each mouse model, a paraffin tissue sample was prepared. Liver and lung tissues were fixed with a paraformaldehyde solution, and sliced to a thickness of 1 to 2 mm. The sectioned tissues were embedded in paraffin, sliced to a thickness of 4 μm to remove paraffin with xylene, and the xylene was removed with ethanol, followed by washing with tap water. […]
Cells were lysed with a protein extraction buffer solution, a protein concentration in a supernatant was determined by Bradford analysis, and […] of the protein was loaded on an SDS-PAGE gel and then transferred to a nitrocellulose membrane. […]

KCa2.3 channel [3] = experiment: KCa2.3 channel protein expression in hepatic stellate cells (western blotting); format: cell-based, human; conditions: exposure for 24 hours
Description: as §1, §2
(§3) Cells were lysed with a protein extraction buffer solution, a protein concentration in a supernatant was determined by Bradford analysis, and […] of the protein was loaded on an SDS-PAGE gel and then transferred to a nitrocellulose membrane. The nitrocellulose membrane was blocked with 5% BSA-containing TEST (10 mM Tris-HCl, 150 mM NaCl, and 0.1% (v/v) Tween-20, pH 7.6) at room temperature for 1 hour. Blots were incubated overnight with primary antibodies, and then incubated with horseradish peroxidase-conjugated secondary antibodies for 1 hour. Bands were visualized by chemiluminescence. Data collection and processing were performed using an image analyzer (LAS-3000) and IMAGE GAUSE software (Fuji film, Japan).

KCa3.1 channel = KCa3.1 channel expression in vascular endothelial cells; format: cell-based, human; conditions: PDGF treatment, 24 hours
KCa3.1 channel, sequence (O15554 whole entry): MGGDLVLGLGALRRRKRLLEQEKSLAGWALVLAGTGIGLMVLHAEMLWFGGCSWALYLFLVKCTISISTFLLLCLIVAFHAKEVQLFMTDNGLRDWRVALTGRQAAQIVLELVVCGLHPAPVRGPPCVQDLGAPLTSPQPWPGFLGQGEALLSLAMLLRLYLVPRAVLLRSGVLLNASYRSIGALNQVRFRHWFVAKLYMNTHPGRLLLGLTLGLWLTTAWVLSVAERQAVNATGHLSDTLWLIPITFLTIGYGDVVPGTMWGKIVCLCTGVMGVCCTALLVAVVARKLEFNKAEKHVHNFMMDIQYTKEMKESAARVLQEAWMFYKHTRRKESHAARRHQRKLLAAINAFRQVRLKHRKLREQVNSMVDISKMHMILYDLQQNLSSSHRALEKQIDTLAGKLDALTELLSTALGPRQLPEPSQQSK
Description: as §1, §2, §3

KCa2.3 channel [4] = experiment: KCa2.3 channel expression in vascular endothelial cells (real-time PCR, western blotting); format: cell-based, human
Description: as §1, §2
The mRNA expression levels of inflammation or fibrosis factors in extracted liver tissue were measured by real-time PCR. RNA of the liver tissue was isolated with a TRIzol reagent (Molecular Research Center, Cincinnati, Ohio), and single-stranded cDNA was synthesized using BcaBEST polymerase (TakaraShuzo), followed by a polymerase chain reaction.
Cells were lysed with a protein extraction buffer solution, a protein concentration in a supernatant was determined by Bradford analysis, and […] of the protein was loaded on an SDS-PAGE gel and then transferred to a nitrocellulose membrane. The nitrocellulose membrane was blocked with 5% BSA-containing TEST (10 mM Tris-HCl, 150 mM NaCl, and 0.1% (v/v) Tween-20, pH 7.6) at room temperature for 1 hour. […]

[5] = tested on: TAA-induced liver disease mouse models; experiment: TAA-induced liver disease mouse model; format: in vivo; conditions: TAA mice; for ALT levels / AST blood levels: blood, mean±S.E.M
Description: (§4) To confirm the effects of the compounds of Formula A1 to A5 (CBM-N1˜N5) according to the present invention on liver inflammation and fibrosis, subsequent experiments were performed on […] wild-type mouse (purchased from Orient Bio). First, to induce liver disease in mice, thioacetamide (TAA) were administered to the mice (Experiment A), or the mice were raised on a western diet inducing fatty liver disease (Experiment B). The mice were divided into a normal control, a disease-induced group, and a drug-administered group, and among these three groups, […] were used in each group for Experiment A, and 10 mice were used in each group for Experiment B. A drug treatment method for the mice in each group is as follows:
(§5) (1) Normal control: The normal control in Experiment A was intraperitoneally injected three times a week with the same amount of TAA solvent used when TAA was injected into a disease-induced group, and the normal control in Experiment B was raised on a normal diet. In both of the Experiments A and B, a CM/1-N1 solvent was injected using an oral tube at the same amount as that of CBM-N1 injection five times a week. The TAA solvent was distilled water, the CBM-N1 solvent and a derivative thereof were a 1:1 mixture of DMSO and distilled water. In the accompanying drawings, C or Control refers to a normal control.
(2) Disease-induced group: The disease-induced group in the Experiment A was intraperitoneally injected with TAA at 100 mg/kg three times a week, the disease-induced group in the Experiment B was raised on a western diet (WD, 45% saturated fat, […], and water containing fructose and glucose). All CBM-N1 solvents in the Experiments A and B were administered using an oral tube at the same amount as that of CBM-N1 administration five times a week. In the accompanying drawings, TAA refers to a group in which a disease is induced by TAA, and \VD refers to a group in which a disease is induced by a western diet.
(3) Drug-administered group: In the Experiment A, the compounds of Formulas 1 to 5 (50 mg/kg/day, 5 times/week e administered with TAA (100 mg/kg, 3 times/week), and in the Experiment B, CBM-N1 to N5 (50 mg/kg/day, 5 times/week) were administered with a western diet. The mice treated by the above-described method for 16 weeks were instantly killed by excessively administering an anesthetic, and then the livers and blood were extracted. In the accompanying drawings, TAA+CBM-Ni, TAA+CBM-N2, TAA+CBM-N3, TAA+CBM-N4 and TAA+CBM-N5 refer to disease-induced groups to which the compounds of Formulas A1 to A5 were administered, respectively.
To histologically confirm the therapeutic effect of the compound of Formula A1 (CBM-N1) or the compound of Formula A9 (CBM-N9) in each mouse model, a paraffin tissue sample was prepared. Liver and lung tissues were fixed with a paraformaldehyde solution, and sliced to a thickness of 1 to 2 mm. The sectioned tissues were embedded in paraffin, sliced to a thickness of 4 μm to remove paraffin with xylene, and the xylene was removed with ethanol, followed by washing with tap water. The resulting tissues were subjected to hematoxylin and eosin staining (H&E staining) or immunohistochemistry.
(1) H&E staining: Nuclei were first stained (blue) with a Harris hematoxylin staining solution for 5 minutes, and counter-stained (pink) with an eosin solution.
(2) Immunohistochemistry for inflammation markers: Inflammation markers (CD82 and CD45) were stained with specific antibodies, and lymphoid cells were stained brown.
(3) Immunohistochemistry for fibrosis markers: Collagen was stained by Masson's trichrome staining, or reticulin fibers were stained by reticulin staining.
Aspartic acid aminotransferase (AST, GOT) and alanine aminotransferase (ALT, GPT), total bilirubin and albumin concentrations were measured using blood collected from liver disease mouse models. […]

[6] = tested on: fibrosis markers (α-SMA, collagen 1α, collagen 3α) in fibroblasts; experiment: Expression of fibrosis markers in fibroblasts exposed to TGFβ (western blotting); format: cell-based; conditions: fibroblasts exposed to TGFβ (5 ng/ml) + compound for 24 hours
Description: as §1, §2, §3

KCa2.3 channel [7] = experiment: KCa2.3 channel protein expression in fibroblasts (western blotting); format: cell-based
Description: as §1, §2, §3

[8] = tested on: western diet-induced liver disease mouse models; experiment: Western diet-induced liver disease mouse model; format: in vivo; conditions: western diet mice
Description: as §4, §5
(2) Disease-induced group: The disease-induced group in the Experiment A was intraperitoneally injected with TAA at 100 mg/kg three times a week, the disease-induced group in the Experiment B was raised on a western diet (WD, 45% saturated fat, […], and water containing fructose and glucose). […]
Aspartic acid aminotransferase (AST, GOT) and alanine aminotransferase (ALT, GPT), total bilirubin and albumin concentrations were measured using blood collected from liver disease mouse models.
The mRNA expression levels of inflammation or fibrosis factors in extracted liver tissue were measured by real-time PCR. […]

[9] = liver tissue, versus disease-induced group
[10] = blood, 50 mg/kg/day, 16 weeks, mean±S.E.M

Compound: NC(=O)C[S+]([O-])C(c1ccc(F)cc1)c1ccc(F)cc1 (stereo not shown) [CBM-N9, 2-[bis(4-fluorophenyl)methanesulfinyl]acetamide]
- KCa2.3 current densities versus cells not exposed (KCa2.3 channel [1]): significantly decreased
- TGFβ or PDGF-induced cell proliferation (fibroblasts; fibroblasts, TGFβ (5 ng/ml) or PDGF (20 ng/ml), 24 hours): significantly reduced
- degrees of inflammation and fibrosis (H&E, CD45 immunohistochemistry, Masson's trichrome) ([2]; 50 mg/kg intraperitoneally five times a week, 4 weeks, versus disease-induced group): decreased
- protein expression levels of inflammation markers TIMP-2 and CCR2 ([2]; FIG. 13A): greatly decreased
- expression of fibrosis marker proteins (printed: protein expression levels of TIMP-2 and, CCR2) ([2]; FIG. 13B): greatly decreased
- expression of the KCa2.3 channel protein (KCa2.3 channel [3]): significantly reduced

Compound: PDGF
- expression of the KCa3.1 channel (KCa3.1 channel): did not increase
- expression of the mRNA and protein of the KCa2.3 channel (KCa2.3 channel [4]; vascular endothelial cells exposed to PDGF (20 ng/ml) or TGF (5 ng/ml) for 24 hours): increased

Compound: NC(=O)C[S+]([O-])C(c1ccccc1)c1ccccc1 (stereo not shown) [CBM-N1, 2-(benzhydrylsulfinyl)acetamide]
- number of inflammation cells (H&E staining of liver tissue) ([5]; 50 mg/kg/day, 16 weeks, versus disease-induced group): significantly decreased
- ALT levels ([5]; 50 mg/kg/day, 16 weeks): 70.3±14.7 units/L
- AST blood levels ([5]; 50 mg/kg/day, 16 weeks): 62.7±11.6 units/L
- mRNA expression levels of fibrosis markers (Col1α, Col3α, Col4α, α-SMA, TGFR2) ([5]; liver tissue): decreased
- mRNA level of inflammation factors (inflammatory cytokines TNFα, CCL2, IL12, TGF, IL1α, IL6, MIP-2) [5, 9]: decreased
- expression levels of the fibrosis markers (α-SMA, collagen 1α, collagen 3α proteins) [6]: reduced
- expression level of the KCa2.3 channel protein (KCa2.3 channel [7]): reduced
- cell proliferation (fibroblasts; fibroblasts exposed to TGFβ (5 ng/ml) + compound for 24 hours): inhibited
- ALT levels [8, 10]: 87.2±24.7 units/L
- AST blood levels [8, 10]: 71.4±19.8 units/L
- mRNA expression levels of inflammatory cytokines CCL2, IL6 and IL1α [8, 9]: decreased
- expression of the KCa2.3 channel protein (KCa2.3 channel [3]): reduced in hepatic stellate cells in a concentration-dependent manner
- expression of the KCa2.3 channel protein (KCa2.3 channel [4]; vascular endothelial cells with KCa2.3 expression increased with PDGF, treated for 24 hours): significantly decreased

Compound: O=C(C[S+]([O-])C(c1ccccc1)c1ccccc1)NCC1CCCO1 (stereo not shown) [CBM-N5, 2-(benzhydrylsulfinyl)-N-[(tetrahydrofuran-2-yl)methyl]acetamide]
- ALT levels ([5]; 50 mg/kg/day, 16 weeks): 106.4±12.8 units/L
- AST blood levels ([5]; 50 mg/kg/day, 16 weeks): 67.7±10.2 units/L
- mRNA level of inflammation factors (inflammatory cytokines TNFα, CCL2, IL12, TGF, IL1α, IL6, MIP-2) [5, 9]: decreased
- expression of the KCa2.3 channel protein (KCa2.3 channel [3]): significantly reduced
